Data reported in ChEMBL document CHEMBL3085711, “Phosphorus-nitrogen compounds part 27. Syntheses, structural characterizations, antimicrobial and cytotoxic activities, and DNA interactions of new phosphazenes bearing secondary amino and pendant (4-fluorobenzyl)spiro groups” (2013).
In brackets after ≈: the same amount, converted by molar mass. Activity calls are given as the source filed them. The rule behind the calls is not given here.

How the values were obtained:
[1] = tested on: Candida albicans; experiment: Antifungal activity against Candida albicans ATCC 10231 at 50 ug after 72 hrs by disk diffusion method; format: functional; details: ATCC 10231, 72 h, read-out: DIZ
[2] = tested on: Candida tropicalis; experiment: Antifungal activity against Candida tropicalis ATCC 13803 at 50 ug after 72 hrs by disk diffusion method; format: functional; details: ATCC 13803, 72 h, read-out: DIZ
[3] = tested on: HeLa; experiment: Cytotoxicity against human HeLa cells assessed as decrease in cell viability at 5 to 50 ug/ml after 24 hrs by MTT assay relative to control; format: functional
[4] = tested on: Escherichia coli; experiment: Binding affinity to Escherichia coli pBR322 G/GATCC DNA assessed as DNA strand cleavage at 625 to 2500 uM preincubated for 24 hrs prior to BamHI treatment measured after 1 hr by agarose gel electrophoresis
[5] = tested on: Escherichia coli; experiment: Binding affinity to Escherichia coli pBR322 DNA assessed as DNA strand cleavage at 156 to 2500 uM after 24 hrs by agarose gel electrophoresis
[6] = tested on: Escherichia coli; experiment: Binding affinity to Escherichia coli pBR322 A/AGCTT DNA assessed as DNA strand cleavage at 625 to 2500 uM preincubated for 24 hrs prior to HindIII treatment measured after 1 hr by agarose gel electrophoresis
[7] = tested on: Bacillus subtilis; experiment: Antibacterial activity against Bacillus subtilis at 30 ug after 24 hrs by disk diffusion method; format: functional; details: read-out: DIZ
[8] = tested on: Bacillus cereus; experiment: Antibacterial activity against Bacillus cereus at 30 ug after 24 hrs by disk diffusion method; format: functional; details: read-out: DIZ
[9] = tested on: Bacillus subtilis; experiment: Antibacterial activity against Bacillus subtilis at 0.25 mM after 24 hrs by disk diffusion method; format: functional; details: read-out: DIZ
[10] = tested on: HeLa; experiment: Cytotoxicity against human HeLa cells assessed as decrease in cell viability after 24 hrs by MTT assay; format: functional, cell-based
[11] = tested on: Bacillus cereus; experiment: Antibacterial activity against Bacillus cereus at 0.25 mM after 24 hrs by disk diffusion method; format: functional; details: read-out: DIZ
[12] = tested on: Bacillus subtilis; experiment: Antibacterial activity against Bacillus subtilis; format: functional
[13] = tested on: Bacillus cereus; experiment: Antibacterial activity against Bacillus cereus; format: functional
[14] = tested on: Candida albicans; experiment: Antifungal activity against Candida albicans ATCC 10231 at 0.25 mM after 72 hrs by disk diffusion method; format: functional; details: ATCC 10231, 72 h, read-out: DIZ
[15] = tested on: Candida tropicalis; experiment: Antifungal activity against Candida tropicalis ATCC 13803 at 0.25 mM after 72 hrs by disk diffusion method; format: functional; details: ATCC 13803, 72 h, read-out: DIZ
[16] = tested on: Candida albicans; experiment: Antifungal activity against Candida albicans ATCC 10231; format: functional
[17] = tested on: Candida tropicalis; experiment: Antifungal activity against Candida tropicalis ATCC 13803; format: functional
[18] = tested on: HeLa; experiment: Cytotoxicity against human HeLa cells assessed as decrease in cell survival at 10 ug/ml after 48 hrs by trypan blue exclusion assay; format: functional, cell-based
[19] = tested on: HeLa; experiment: Induction of apoptosis in human HeLa cells assessed as change in cellular morphology at 25 uM after 24 hrs by propidium iodide staining-based fluorescence microscopic analysis; format: functional, cell-based
[20] = tested on: HeLa; experiment: Induction of apoptosis in human HeLa cells assessed as loss of mitochondrial membrane potential at 25 uM after 24 hrs by DiOC6 staining-based fluorescence microscopic analysis; format: functional, cell-based
[21] = tested on: HeLa; experiment: Induction of apoptosis in human HeLa cells at 25 uM after 48 to 72 hrs by DAPI staining-based fluorescence microscopic analysis; format: functional, cell-based
[22] = tested on: HeLa; experiment: Cytotoxicity against human HeLa cells assessed as decrease in cell viability at 5 ug/ml after 24 hrs by MTT assay relative to control; format: functional, cell-based
[23] = tested on: HeLa; experiment: Cytotoxicity against human HeLa cells assessed as decrease in cell viability at 10 to 50 ug/ml after 24 hrs by MTT assay relative to control; format: functional, cell-based
[24] = tested on: Bacillus subtilis; experiment: Antibacterial activity against Bacillus subtilis at 10 ug after 24 hrs by disk diffusion method; format: functional; details: read-out: DIZ
[25] = tested on: Bacillus cereus; experiment: Antibacterial activity against Bacillus cereus at 10 ug after 24 hrs by disk diffusion method; format: functional; details: read-out: DIZ

For `CC(=O)N1CCN(c2ccc(OCC3COC(Cn4ccnc4)(c4ccc(Cl)cc4Cl)O3)cc2)CC1` (centres undefined) [KETOCONAZOLE], the zone of inhibition at 50 µg/disc [1] was 29 mm and the zone of inhibition at 50 µg/disc [2] was 29 mm.
In the case of `CCN1CCN(Cc2ccc(F)cc2)P12=NP(N1CCC3(CC1)OCCO3)(N1CCC3(CC1)OCCO3)=NP(N1CCC3(CC1)OCCO3)(N1CCC3(CC1)OCCO3)=N2` (centres undefined), the Activity [3] is reported as “inactive”, the Activity [4] is reported as “Active” and the Activity [5] is reported as “Active”.
With `CCN1CCN(Cc2ccc(F)cc2)P12=NP(N1CCOCC1)(N1CCOCC1)=NP(N1CCOCC1)(N1CCOCC1)=N2` (centres undefined) the Activity [3] was “inactive”, the Activity [6] was “Active” and the Activity [5] was “Active”.
Work on `O=C(N[C@H](CO)[C@H](O)c1ccc([N+](=O)[O-])cc1)C(Cl)Cl` [CHLORAMPHENICOL] yielded a zone of inhibition at 30 µg/disc [7] of 31 mm and a zone of inhibition at 30 µg/disc [8] of 26 mm.
`CN1CCCN(Cc2ccc(F)cc2)P12=NP(N1CCCC1)(N1CCCC1)=NP(N1CCCC1)(N1CCCC1)=N2` (centres undefined) was tested, and the zone of inhibition at 250 µM [9] was 16.5 mm, the Activity [3] was 50% and the Activity [10] was “Dose-dependent effect”. The zone of inhibition at 250 µM [11] was 12.6 mm, the Activity [4] was “Active” and the Activity [5] was “Active”. The MIC [12] was 9.8 µM (≈ 5.97 µg/mL) and the MIC [13] was 156 µM (≈ 95.3 µg/mL).
Work on `CCN1CCN(Cc2ccc(F)cc2)P12=NP(N1CCCCC1)(N1CCCCC1)=NP(N1CCCCC1)(N1CCCCC1)=N2` (centres undefined) yielded a zone of inhibition at 250 µM [14] of 12.3 mm, a zone of inhibition at 250 µM [15] of 17.3 mm and a zone of inhibition at 250 µM [9] of 10.7 mm. For the same compound, the Activity [10] was “Dose-dependent effect”, the Activity [4] was “Active” and the Activity [5] was “Active”. It also gave an MIC [16] of 625 µM (≈ 416 µg/mL), an MIC [12] of 156 µM (≈ 104 µg/mL) and an MIC [17] of 19.5 µM (≈ 13 µg/mL).
`CN1CCN(Cc2ccc(F)cc2)P12=NP(N1CCC3(CC1)OCCO3)(N1CCC3(CC1)OCCO3)=NP(N1CCC3(CC1)OCCO3)(N1CCC3(CC1)OCCO3)=N2` (centres undefined) was tested, and the Activity [3] was “inactive”, the Activity [18] was “Active” and the Activity [19] was “inactive”. The Activity [20] was “Active”, the Activity [21] was “Active” and the Activity [4] was “Active”. For the same compound, the Activity [5] was “Active”.
For `CCN1CCN(Cc2ccc(F)cc2)P12=NP(N1CCCC1)(N1CCCC1)=NP(N1CCCC1)(N1CCCC1)=N2` (centres undefined), the zone of inhibition at 250 µM [9] was 11.5 mm, the Activity [22] was “Active” and the Activity [10] was “Dose-dependent effect”. The Activity [4] was “Active”, the Activity [5] was “Active” and the MIC [12] was 9.8 µM (≈ 5.97 µg/mL).
With `CN1CCCN(Cc2ccc(F)cc2)P12=NP(N1CCCCC1)(N1CCCCC1)=NP(N1CCCCC1)(N1CCCCC1)=N2` (centres undefined) the zone of inhibition at 250 µM [14] was 18.3 mm, the zone of inhibition at 250 µM [15] was 20 mm and the Activity [23] was “Active”. For the same compound, the Activity [10] was “Dose-dependent effect”, the Activity [4] was “Active” and the Activity [5] was “Active”. It also gave an MIC [16] of 9.8 µM (≈ 6.52 µg/mL) and an MIC [17] of 19.5 µM (≈ 13 µg/mL).
In the case of `CC(=O)O[C@H]1C(=O)[C@@]2(C)[C@H]([C@H](OC(=O)c3ccccc3)[C@]3(O)C[C@H](OC(=O)[C@H](O)[C@@H](NC(=O)c4ccccc4)c4ccccc4)C(C)=C1C3(C)C)[C@]1(OC(C)=O)CO[C@@H]1C[C@@H]2O`, the Activity [3] is reported as “Active” and the Activity [10] is reported as “Dose-dependent effect”.
In the case of `CN1CCCN(Cc2ccc(F)cc2)P12=NP(N1CCOCC1)(N1CCOCC1)=NP(N1CCOCC1)(N1CCOCC1)=N2` (centres undefined), the Activity [3] is reported as 58%, the Activity [19] is reported as “inactive” and the Activity [20] is reported as “Active”. The Activity [6] was “Active” and the Activity [5] was “Active”.
In the case of `CC1(C)S[C@@H]2[C@H](NC(=O)[C@H](N)c3ccccc3)C(=O)N2[C@H]1C(=O)O` [AMPICILLIN], the zone of inhibition at 10 µg/disc [24] is reported as 30.3 mm and the zone of inhibition at 10 µg/disc [25] is reported as 26.3 mm.
In the case of `CN1CCN(Cc2ccc(F)cc2)P12=NP(N1CCCCC1)(N1CCCCC1)=NP(N1CCCCC1)(N1CCCCC1)=N2` (centres undefined), the zone of inhibition at 250 µM [14] is reported as 13.6 mm, the zone of inhibition at 250 µM [15] is reported as 17.3 mm and the Activity [10] is reported as “Dose-dependent effect”. The Activity [4] was “Active”, the Activity [5] was “Active” and the MIC [16] was 156 µM (≈ 102 µg/mL). The MIC [17] was 156 µM (≈ 102 µg/mL).
`CN1CCN(Cc2ccc(F)cc2)P12=NP(N1CCCC1)(N1CCCC1)=NP(N1CCCC1)(N1CCCC1)=N2` (centres undefined) was tested, and the zone of inhibition at 250 µM [9] was 12.3 mm, the Activity [10] was “Dose-dependent effect” and the Activity [4] was “Active”. The Activity [5] was “Active” and the MIC [12] was 9.8 µM (≈ 5.84 µg/mL).
`CN1CCN(Cc2ccc(F)cc2)P12=NP(N1CCOCC1)(N1CCOCC1)=NP(N1CCOCC1)(N1CCOCC1)=N2` (centres undefined) was tested, and the Activity [3] was “inactive”, the Activity [6] was “Active” and the Activity [5] was “Active”.
In the case of `CN1CCCN(Cc2ccc(F)cc2)P12=NP(N1CCC3(CC1)OCCO3)(N1CCC3(CC1)OCCO3)=NP(N1CCC3(CC1)OCCO3)(N1CCC3(CC1)OCCO3)=N2` (centres undefined), the Activity [3] is reported as 49%, the Activity [18] is reported as “Active” and the Activity [19] is reported as “inactive”. For the same compound, the Activity [20] was “Active”, the Activity [21] was “Active” and the Activity [4] was “Active”. The Activity [5] was “Active”.
